Where a name gives a salt, the structure may show the parent alone.

One assay relates to outer hair cells. Briefly: Outer hair cell loss (cytocochleograms) in cochleae fixed at D14 after acoustic trauma. The assay is classed as in vivo, Wistar rats. The method, then:
Animals were exposed to 121 dB octave band noise (8-16 kHz) for 2 h in groups of 4 rats, placed in individual compartments of a custom built circular cage placed on a 30 cm diameter platform rotating at 3 turns/minute (Aqila Innovation, Valbonne, France). The calibrated octave band noise generated by the RZ6 SigGen software was further amplified by a Crown D-75 amplifier in bridge mode (Crown Audio, Elkhart, IN, USA) and delivered by four Beyma CP16 compression tweeters (Acustica Beyma S. L., Moncada, Valencia, Spain) positioned 39 cm above the rotating platform, each 10 cm from the platform center.
Animals were treated by intraperitoneal injection daily for 14 days beginning immediately after acoustic trauma induction and subsequently repeated every 24 hours. The setron compounds granisetron HCl, ondansetron HCl, tropisetron HCl and azasetron HCl (Tocris Bioscience, Bristol, UK) were delivered dissolved in saline solution (1.6 mL/kg) while Tacrolimus (Selleck Chemicals, Houston, TX, USA) was dissolved in solution composed of 10% ethanol-100%/10% Kolliphor EL/1% Tween 80/79% saline (1.0 mL/kg). Placebo treated animals received injections of 1.6 mL/kg saline following the same treatment schedule.
After audiometry on day 14, animals were deeply anaesthetized with an intraperitoneal injection of pentobarbital (100 mg/kg). The cochleae were removed, fixed with 4% paraformaldehyde, pH 7.4, decalcified with 10% EDTA, pH 7.4 and then stained with myosin VIIa 1/1000. […] The mean loss of OHCs per group was subsequently calculated as a function of normalized distance from the apex in bins of 2.5% of the total length, using the total length of each histological specimen. Cell counts could reliably be obtained for up to 90% of the total distance from the apex (corresponding to the tonotopic region up to from 0 kHz to ~50 kHz in rat, Viberg & Canlon 2004), while the last 10% was too variable due to damage incurred during dissection.
Statistical analysis was performed using two-way ANOVA (Audiometry data: frequency and treatment group. Cochleograms: normalized distance from apex and treatment group) followed by Holm-Sidak post-hoc test for multiple comparisons. Results are given as mean±SEM and a p value less than or equal to 0.05 considered significant.
To further support the conclusions from the functional audiometry data, the loss of outer hair cells in four treatment group was determined by constructing cytocochleograms from histological preparations of cochleae fixed after audiometry on day 14.

Another assay has as its system calcineurin. As to the kind of experiment: Calcineurin phosphatase activity in cerebellar granule neurons after 4 DIV (malachite green colorimetric assay, Test A). The assay is classed as cell-based, Wistar rat. The method, then: According to Test A, phosphatase calcineurin activity is assessed in cerebellar granule neurons (CGNs) using a colorimetric assay kit based on quantification of the green complex formed between malachite green, molybdate and free phosphate released. CGNs are detached from plates, for example by scraping, rinsed in ice-cold tris buffer solution (TBS) and counted. About 10 million cells are lysed in 1 ml of the provided lysis buffer and centrifuged at 150,000×g at 4° C. for 45 min, and the supernatant may be stored at −70° C. until analysis. Prior to calcineurin activity assay, free phosphate and nucleotides are removed from cellular extract by gel filtration. To ensure the complete removal of phosphate, malachite green reagent may be added, which will turn the color green in presence of phosphate. A specific calcineurin substrate is added to phosphate-free cellular extracts and after appropriate incubation period, malachite green reagent is applied. The rapid green color formation from the reaction is measured, for example on a spectrophotometer. The developed color is proportional to the calcineurin phosphatase activity of samples. Absorbance values, read at 620 nm, may thus be transformed to percentage calcineurin activity relative to K25 control treatment (100%). Cerebellar granule cells were dissociated from the cerebellae of 7-day-old Wistar rat pups as described (Kramer et al. 2003, Mol Cell Neurosci 23:325-330). Briefly, the cerebellae were removed, rinsed in HBSS-BSA, minced, digested with 0.025% trypsin and incubated at 37° C. for 15 min. To stop the digestion, DMEM containing 10% fetal calf serum was added; then a single cell suspension was obtained through pipetting up and down the sedimented tissue. Following centrifugation, cells were counted using trypan blue exclusion test in a Burker chamber. This method is based on the ability of viable cells to exclude trypan blue due to their intact cell membranes, leaving them unstained while nonviable cells take up the dye. Cells at 3.2×10^5/cm^2 were seeded in DMEM Hepes modification supplemented with 10% fetal calf serum, 100 μg/ml pyruvate, and 100 μg/ml gentamicin on Polystyrene 12-well tissue culture plates (CELLSTAR) coated with poly-L-lysine. After 24 h, 10 μM cytosine arabinofuranoside was added to inhibit the growth of non-neuronal cells. All pharmacological interventions begun at this time in the culture medium containing 25 mM KCl (K25), which caused depolarization of granule cells and consequently activated gene expression machinery. Moreover, the viability of granule neurons was higher in this milieu and therefore provides the possibility to maintain cells for several days. Indeed, 25 mM KCl is required in the medium for CGN cultures to maintain adequate calcineurin activity and cell maturation and depolarization (Kramer et al., 2003, Mol Cell Neurosci 23:325-330; Vallano et al. 2006, Neuropharmacology 50: 651-660). Cultures received simple medium (K25 control) or medium containing a setron compound in HCl salt form (Tocris Bioscience, Bristol, UK) at concentrations of 10 nM, 100 nM or 1000 nM for 4 days in vitro (DIV). Phosphatase calcineurin activity was assessed in CGNs using a colorimetric assay kit based on quantification of the green complex formed between malachite green, molybdate and free phosphate released. CGNs were detached from plates by scraping, rinsed in ice-cold tris buffer solution (TBS) and counted. About 10 million cells are lysed in 1 ml of the provided lysis buffer and centrifuged at 150,000×g at 4° C. for 45 min, and the supernatant was stored at −70° C. until analysis. Prior to calcineurin activity assay, free phosphate and nucleotides were removed from cellular extract by gel filtration. To ensure the complete removal of phosphate, malachite green reagent was added, which will turn the color green in presence of phosphate. […]

`CN1C(=O)COc2c(C(=O)NC3CN4CCC3CC4)cc(Cl)cc21` (centres unmarked) [azasetron HCl, N-(1-azabicyclo[2.2.2]octan-8-yl)-6-chloro-4-methyl-3-oxo-1,4-benzoxazine-8-carboxamide]: in the assay with outer hair cells (cochleae fixed after audiometry on day 14), the “mean loss of outer hair cells compared to placebo” value is listed as “significantly lower mean loss”. Moreover, in the assay with outer hair cells (cochleae fixed at day 14), the “reduction of mean outer hair cell loss compared to placebo treatment” value was 50-75%. Moreover, in the assay with calcineurin (CGNs in K25 medium, 10, 100 or 1000 nM for 4 DIV, relative to K25 control (100%)), the “effect on calcineurin phosphatase activity” value is “significantly inhibited”. The “change of calcineurin inhibition with increasing concentration” value with calcineurin (CGNs, 4 DIV, 10-1000 nM) is “increased to different degree with increasing concentrations”. For the same compound, the “concentrations at which calcineurin inhibition was significant” value in the assay on calcineurin (CGNs, 4 DIV, tested at 10, 100, 1000 nM, p<=0.05 vs K25 control) was 1000 nM.
